Converted amounts (≈) assume the structure as drawn. Non-standard residues stand in square brackets, D forms with d. Residues, ends and D or L forms follow the SMILES beside them. No end group written: not given here.
Legend:
S. aureus (ATCC 6538) = test: microbe, parasite or virus in culture; type: cell-based, Staphylococcus aureus; conditions: for MBC: ATCC 6538, 18 h; for MIC: ATCC 6538, 24 h
Description: (§1) The antimicrobial activities of peptides were evaluated against the Gram-positive bacteria, S. aureus (ATCC 6538), methicillin-resistant Staphylococcus aureus (MRSA) (NCTC 12493), Enterococcus faecalis (E. faecalis) (NCTC 12697); the Gram-negative bacteria, E. coli (ATCC CRM 8739), Klebsiella pneumoniae (K. pneumoniae) (ATCC 43816), Pseudomonas aeruginosa (P. aeruginosa) (ATCC CRM 9027); and the yeast, Candida albicans (C. albicans) (ATCC CRM 10231). Clinical isolates of MRSA (B042 V2E1 A), E. coli (ATCC BAA-2340), K. pneumoniae (ATCC BAA-1705), and P. aeruginosa (B004 V2S2 B) were also used to determine their antimicrobial activities. The suspension of microorganisms in the logarithmic growth phase with a specific final density (Gram-negative and Gram-positive bacteria: 5 × 10^5 CFU/mL; yeast: 1 × 10^6 CFU/mL) was incubated with different peptide concentrations from 1 µM to 512 µM at 37 °C for 24 h. PBS was used as the negative control, and norfloxacin and amphotericin B were selected as the positive control for bacteria and yeast, respectively. Since the Norfloxacin had weak activities against P. aeruginosa (B004 V2S2 B) and K. pneumoniae (ATCC BAA 1705), gentamicin was used as the positive control for these two bacterial strains. The absorbance of each well was obtained using a microplate reader (EL808, Biolise BioTek, Winooski, VT, USA) set at 550 nm wavelength. The MIC value was the lowest concentration of a peptide that inhibits visible bacterial growth. Once the MIC values were determined, an aliquot from the bacterial culture exposed to the peptide at or above its MIC value was inoculated on a Mueller Hinton agar (MHA) and was incubated at 37 for 18 h. The MBC value was the lowest concentration of a peptide that kills 99.9% of bacteria.

E. faecalis (NCTC 12697) = test: microbe, parasite or virus in culture; type: cell-based, Enterococcus faecalis; conditions: for MBC: NCTC 12697, 18 h; for MIC: NCTC 12697, 24 h
Description: as §1

[1] = system: S. aureus (ATCC 6538) biofilm; type: cell-based, Staphylococcus aureus; conditions: ATCC 6538, 24 h
Description: (§2) The anti-biofilm activities of the peptides against S. aureus (ATCC 6538), MRSA (NCTC 12493), E. faecalis (NCTC 12697), E. coli (ATCC CRM 8739), K. pneumoniae (ATCC 43816), and P. aeruginosa (ATCC CRM 9027), were evaluated. For the MBIC assay, 99 µL of bacterial suspension (5 × 10^5 CFU/mL) was mixed with 1 µL of serial dilutions (from 100 µM to 51,200 µM) of temporin-PKE and its analogues in a 96-well plate, and the plate was incubated in a moist shaking incubator at a speed of 200 rpm at 37 °C for 24 h. For the MBEC assay, 100 µL of bacterial suspension (5 × 10^5 CFU/mL) in each well was seeded in a new 96-well plate, and the plate was put into the same shaking incubator for 24 h incubation to allow biofilm formation on the well. After biofilm formation, the biofilm in the plate was washed with PBS twice. The PBS was aspirated between washes to remove planktonic bacterial cells. The washed biofilm in each well was treated with 100 µL of serial dilutions (from 1 µM to 512 µM) of the test peptides. Then, the plate was incubated in the same shaking incubator for another 24 h. After being washed by PBS twice and fixed with methanol, the biofilm in each well was incubated with 100 µL of 0.1% crystal violet for 30 min, and the stained biofilm was dissolved in 100 µL of glacial acidic acid after drying. The solutions were transferred to a new microplate, and the absorbance of each well was measured using a microplate reader (EL808, Biolise BioTek, Winooski, VT, USA) set to 595 nm wavelength. The MBIC was the minimum concentration of the peptide showing no biofilm formation. The MBEC is the lowest concentration of the peptide capable of eradicating the mature biofilms, which had no biofilm in the well.

[2] = system: MRSA (NCTC 12493) biofilm; type: cell-based, methicillin-resistant Staphylococcus aureus; conditions: NCTC 12493, 24 h
Description: as §2

HCT-116 cells = type: cell-based; conditions: 24 h
Description: (§3) The cytotoxicity of the peptides against the human epidermal keratinocyte line, HaCaT, was tested using the MTT cell viability assay as described in a previous study. The 100 µL of the cell suspension in a complete DMEM medium with a density of 10,000 cells/mL was seeded in a 96-well plate and incubated overnight at 37 °C in a humidified 5% CO2 atmosphere. After 4 h of starvation in a serum-free medium, 100 μL of serial dilutions (from 10^−9 M to 10^−4 M) of temporin-PKE and its analogues was added to each well, and the plate was incubated for 24 h. The serum-free medium and 0.1% Triton X-100 were used as the negative and positive control, respectively. Then, MTT solution, at a volume of 10 μL, was added to each well, and the plate was incubated for 2 h. After this, the medium was replaced by 100 μL of DMSO, and plates were put in the shaking incubator for 15 min. The absorbance of each well was measured using a microplate reader (EL808, Biolise BioTek, Winooski, VT, USA) set to a wavelength of 570 nm. The equation used to calculate the viability of the cells is shown below: Cell viability (%)=A−Ab/An−Ab×100% where A represents the absorbance of each treatment group, Ab represents the average absorbance of the wells in the blank control group (cells not exposed to the test peptide and MTT), and An represents the average absorbance of the wells in the negative control group (cells not exposed to the test peptide).
(§4) The anti-proliferative activities of peptides against HCT-116, NCI-H838 (H838), U251MG, PC-3, and NCI-H157 cell lines were determined by MTT cell viability assay, and the details were described in Section 2.9.

NCI-H157 cells = type: cell-based; conditions: 24 h
Description: as §3, §4

NCI-H838 (H838) cells = type: cell-based; conditions: 24 h
Description: as §3, §4

PC-3 cells = type: cell-based; conditions: 24 h
Description: as §3, §4

U251MG cells = type: cell-based; conditions: 24 h
Description: as §3, §4

Row | Compound | MBC (S. aureus (ATCC 6538)) | MIC (S. aureus (ATCC 6538)) | MBC (E. faecalis (NCTC 12697)) | MIC (E. faecalis (NCTC 12697)) | MBIC [1] | MBIC [2] | IC50 (HCT-116 cells) | IC50 (NCI-H157 cells) | IC50 (NCI-H838 (H838) cells) | IC50 (PC-3 cells) | IC50 (U251MG cells)
1 | CC[C@@H](C)[C@@H](NC(=O)[C@H](CCCCN)NC(=O)[C@@H]1CCCN1C(=O)[C@H](CC(C)C)NC(=O)[C@H](CC(C)C)NC(=O)[C@H](CO)NC(=O)[C@H](CO)NC(=O)[C@H](CC(C)C)NC(=O)[C@H](C)NC(=O)CNC(=O)[C@H](NC(=O)[C@H](NC(=O)[C@H](CC(C)C)NC(=O)[C@@H]1CCCN1C(=O)[C@H](CC(C)C)NC(=O)[C@@H](N)Cc1ccccc1)[C@H](C)CC)[C@H](C)CC)C(=O)N[C@@H](Cc1ccccc1)C(N)=O [Temporin-PKE-3i] (H-FLPL[dI][dI]GALSSLLPK[dI]F-NH2) | 32 µM (≈ 58.9 µg/mL) | 32 µM (≈ 58.9 µg/mL) | 128 µM (≈ 236 µg/mL) | 128 µM (≈ 236 µg/mL) | 64 µM | 64 µM | 72.1 µM | 71.2 µM | 193 µM | 167 µM | 121 µM
2 | FLPLIIGKLSSLLPKIF-NH2 [Temporin-PKE-2K] | 2 µM | 2 µM | 2 µM | 2 µM | 2 µM | 2 µM | 2.84 µM | 2.78 µM | 3.07 µM | 2.64 µM | 2.49 µM
3 | FLPKIIGKLSSLLPKIF-NH2 [Temporin-PKE-3K] | 2 µM | 2 µM | 2 µM | 2 µM | 2 µM | 2 µM | 0.38 µM | 3.29 µM | 0.51 µM | 3.01 µM | 2.83 µM
4 | FLPLIIGALSSKLPKIF-NH2 [Temporin-PKE-K12] | 4 µM | 4 µM | 8 µM | 8 µM | 4 µM | 4 µM | 22.1 µM | 24 µM | 22.7 µM | 27.3 µM | 25.8 µM
5 | FLPKIIGKLSSKLPKIF-NH2 [Temporin-PKE-4K] | 32 µM | 32 µM | 32 µM | 32 µM | 32 µM | 32 µM | 99.4 µM | 27.8 µM | 35.3 µM | 49.5 µM | 85.5 µM
6 | FLPLIIGALSSLLPKIF-NH2 [Temporin-PKE] | 2 µM | 2 µM | 8 µM | 8 µM | 2 µM | 4 µM | 21.3 µM | 17.4 µM | 16.4 µM | 7.29 µM | 23.2 µM
7 | CC[C@@H](C)[C@@H](NC(=O)[C@H](CCCCN)NC(=O)[C@@H]1CCCN1C(=O)[C@H](CC(C)C)NC(=O)[C@H](CC(C)C)NC(=O)[C@H](CO)NC(=O)[C@H](CO)NC(=O)[C@H](CC(C)C)NC(=O)[C@H](C)NC(=O)CNC(=O)[C@@H](NC(=O)[C@@H](NC(=O)[C@H](CC(C)C)NC(=O)[C@@H]1CCCN1C(=O)[C@H](CC(C)C)NC(=O)[C@@H](N)Cc1ccccc1)[C@@H](C)CC)[C@@H](C)CC)C(=O)N[C@@H](Cc1ccccc1)C(N)=O [Temporin-PKE-i] (H-FLPLIIGALSSLLPK[dI]F-NH2) | 2 µM (≈ 3.68 µg/mL) | 2 µM (≈ 3.68 µg/mL) | 4 µM (≈ 7.37 µg/mL) | 4 µM (≈ 7.37 µg/mL) | 2 µM | 2 µM | 3.07 µM | 2.94 µM | 5.28 µM | 3.35 µM | 4.46 µM

Source: paper PMC9221509, “Discovery of a Novel Antimicrobial Peptide, Temporin-PKE, from the Skin Secretion of Pelophylax kl. esculentus, and Evaluation of Its Structure-Activity Relationships” (Biomolecules, 2022)
